Target: Beta-2 adrenergic receptor (Homo sapiens, UniProt P07550)
Assay: Displacement of [3H]-CGP-12177 from human beta2-adrenergic receptor

Chain of Beta-2 adrenergic receptor (P07550 whole entry): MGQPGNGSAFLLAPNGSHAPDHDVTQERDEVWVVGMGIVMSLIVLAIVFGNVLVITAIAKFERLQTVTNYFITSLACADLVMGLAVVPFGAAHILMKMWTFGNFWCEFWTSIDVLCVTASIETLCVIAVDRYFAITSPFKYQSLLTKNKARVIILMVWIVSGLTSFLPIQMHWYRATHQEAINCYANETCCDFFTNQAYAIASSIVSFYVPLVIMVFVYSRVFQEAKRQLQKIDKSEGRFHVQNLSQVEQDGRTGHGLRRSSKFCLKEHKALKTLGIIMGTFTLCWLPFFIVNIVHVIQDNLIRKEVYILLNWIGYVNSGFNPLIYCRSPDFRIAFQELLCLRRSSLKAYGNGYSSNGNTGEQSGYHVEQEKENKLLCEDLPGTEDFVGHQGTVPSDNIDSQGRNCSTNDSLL

Structure (SMILES)	IC50 [µM]
COc1cc2c(cc1OC)[C@H]([C@H](O)c1ccccc1Cl)NCC2	> 10
COc1cc2c(cc1OC)[C@H]([C@H](O)c1ccccc1)NCC2	> 10
COc1ccc(CCNC[C@H](O)c2ccccc2)cc1OC	8.4

Source: ChEMBL document CHEMBL4257493, “Discovery of 7-hydroxyaporphines as conformationally restricted ligands for beta-1 and beta-2 adrenergic receptors” (Medchemcomm, 2018)
